We go through 13 molecules from ChEMBL document CHEMBL1201862, “PubChem BioAssay data set” (2004).

Holding throughout (test): growth of human tumour cells (NCI), 48 h
Assay [1] relates to MDA-MB-435.
In assay [2] the test system is T47D.
The subject of assay [3] is CCRF-CEM.
The subject of assay [4] is SR.
For assay [5], the system named is LOX IMVI.
The test system of assay [6] is SN12C.
Assay [7] relates to SF-268.
Assay [8] relates to HT-29.
In assay [9] the test system is HL-60.
The test system of assay [10] is SK-MEL-5.
Assay [11] relates to HOP-62.
Assay [12] relates to DU-145.
Assay [13] concerns MDA-N.
Assay [14] concerns MOLT-4.
Assay [15] concerns SK-MEL-2.
In assay [16] the test system is SNB-19.
In assay [17] the test system is BT-549.
Assay [18] has as its system Hs-578T.
For assay [19], the system named is NCI-H522.

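Briefly, cells in 96-well plates were exposed to five compound concentrations for 48 h, and endpoints were estimated by linear interpolation. At the GI50, growth is halved.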 Calls of active or inactive are those of the source. Cut-off read from the data, not from the text of the source: active = GI50 up to about 1.1 µM and inactive = higher.

`CCOC(=O)CSc1[nH]c2nc(C)nc(Cl)c2c1C#N`: the GI50 in assay [1], in assay [2], in assay [3], in assay [4], in assay [5] and in assay [6] was > 10 µM (inactive) each time. For the same molecule, the GI50 in assay [7], in [8], in assay [9], in assay [10], in assay [11] and in assay [12] was > 10 µM (inactive) throughout. For the same molecule, the GI50 in assay [13] and in assay [14] was > 10 µM (inactive) throughout.
For the molecule `CN(C)C1(N(C)C)Oc2c(c(=O)n(C)c(=O)n2C)C(c2ccc(C(F)(F)F)cc2)C1(F)F` (stereo unspecified), the GI50 in [1], in assay [2], in assay [3], in [15], in assay [5] and in [7] was > 100 µM (inactive) in each case. Moreover, the GI50 in [16], in assay [10], in assay [17], in [11] and in assay [12] was > 100 µM (inactive) in each case.
As to `CC1(C)S[C@@H]2[C@H](N3C(=O)c4ccccc4C3=O)CN2[C@H]1NC(=O)N[C@@H]1N2C[C@@H](N3C(=O)c4ccccc4C3=O)[C@H]2SC1(C)C`, the GI50 in assay [1], in assay [18], in assay [2], in assay [19], in assay [3] and in [15] was > 100 µM (inactive) in each case. Moreover, the GI50 in assay [5] was > 100 µM (inactive); in [6], > 100 µM (inactive); in assay [7] it was 28.9 µM (inactive); in [16], 43.2 µM (inactive); in assay [8] it was > 100 µM (inactive); in assay [9], > 100 µM (inactive). Besides, the GI50 is > 100 µM (inactive) in assay [10], 48.8 µM (inactive) in assay [11], > 100 µM (inactive) in [12] and > 100 µM (inactive) in assay [14].
Turning to `CC(C)C1OC(N)=C(C#N)C1(C#N)C#N` (stereo unspecified), the GI50 in [1] is 29.6 µM (inactive); in assay [18], 53.7 µM (inactive); in assay [2], 67.3 µM (inactive); in assay [19] it was 34.6 µM (inactive); in [3], 10.9 µM (inactive); in assay [15], > 100 µM (inactive). The GI50 in assay [5] was 28.1 µM (inactive); in assay [6], 69.7 µM (inactive); in assay [7] it was 44.2 µM (inactive); in [16], 46.8 µM (inactive); in assay [8], 38.1 µM (inactive); in assay [9], 5.58 µM (inactive). Also, the GI50 in assay [10] was 33.3 µM (inactive); in assay [11], 44.4 µM (inactive); in [12] it was 51.3 µM (inactive); in [13], 38.2 µM (inactive).
For `Cc1cc(-c2ccc(Cl)cc2)c(C#N)c(=S)n1C1OC(CO)C(O)C(O)C1O` (stereo unspecified), the GI50 in [1] is > 100 µM (inactive); in assay [18], > 100 µM (inactive); in [2] it was 99.8 µM (inactive); in assay [19], > 100 µM (inactive); in assay [3], > 100 µM (inactive); in assay [4], > 100 µM (inactive). For the same molecule, the GI50 in [15], in [5], in [6], in assay [7], in assay [16] and in assay [8] was > 100 µM (inactive) each time. Besides, the GI50 in assay [9], in assay [10], in assay [11], in assay [12], in assay [13] and in assay [14] was > 100 µM (inactive) throughout.
In the case of `CN(C)CCNC(=O)c1cccc2c(NC(CCCNC(=N)N)C(=O)O)c3ccccc3nc12` (stereo unspecified), the GI50 is 10.1 µM (inactive) in [1]; 11.4 µM (inactive) in [18]; 3.75 µM (inactive) in [19]; 15.3 µM (inactive) in [3]; 1 µM (active) in assay [4]; 13.8 µM (inactive) in assay [15]. In addition, the GI50 in [5] was 3.85 µM (inactive); in [6] it was 10.5 µM (inactive); in assay [7] it was 9.2 µM (inactive); in assay [16], 3.94 µM (inactive); in assay [8] it was 2.7 µM (inactive); in [9], > 100 µM (inactive). The GI50 in assay [10] was 6.05 µM (inactive); in [11], 9.73 µM (inactive); in assay [12], 17 µM (inactive); in assay [13], 14 µM (inactive); in assay [14], 3.89 µM (inactive).
For `Clc1ccccc1/C=C\C1(c2ccccc2)OCCO1`, the GI50 in [1] is 15.6 µM (inactive); in assay [18] it was 13.8 µM (inactive); in [2], 26.9 µM (inactive); in [19], 13.4 µM (inactive); in assay [3], 19.7 µM (inactive); in assay [4], 3.58 µM (inactive). Further, the GI50 was 5.36 µM (inactive) in assay [5]; 18.1 µM (inactive) in assay [6]; 13.1 µM (inactive) in [7]; 15.8 µM (inactive) in [8]; 24.8 µM (inactive) in assay [9]; 19.8 µM (inactive) in assay [10]. Also, the GI50 in assay [11] is 22.3 µM (inactive); in [12], 16.7 µM (inactive); in assay [13], 15.6 µM (inactive); in assay [14], 15.9 µM (inactive).
Turning to `COc1ccc(N(CN2C(=O)CCC2C(=O)O)C(C)=O)cc1` (stereo unspecified), the GI50 in assay [1], in assay [18], in [2], in [19], in [3] and in [15] was > 100 µM (inactive) each time. Moreover, the GI50 in assay [5], in [6], in assay [7], in [16], in assay [8] and in assay [9] was > 100 µM (inactive) throughout. For the same molecule, the GI50 was > 100 µM (inactive) in [10]; > 100 µM (inactive) in [11]; > 100 µM (inactive) in assay [12]; > 100 µM (inactive) in [13]; 65.5 µM (inactive) in [14].
Regarding `O=C1CC(c2ccc(Cl)cc2)C2(C(=O)NC(=S)NC2=O)C(c2ccc(Cl)cc2)C1` (stereo unspecified), the GI50 in assay [1] was 19.5 µM (inactive); in assay [18], 30 µM (inactive); in assay [2] it was 23.7 µM (inactive); in assay [3] it was 24.2 µM (inactive); in [4], 30.3 µM (inactive); in assay [15], 17.3 µM (inactive). The GI50 in assay [5] was 28.3 µM (inactive); in assay [6], 18.2 µM (inactive); in assay [7] it was 16.2 µM (inactive); in [16] it was 18.4 µM (inactive); in assay [8] it was 16.9 µM (inactive); in assay [9] it was 20.8 µM (inactive). Also, the GI50 is 17 µM (inactive) in assay [10]; 26.8 µM (inactive) in assay [11]; 37.2 µM (inactive) in assay [12]; 17.2 µM (inactive) in assay [13]; 25.5 µM (inactive) in assay [14].
As for `c1ccc(CN(Cc2ccccn2)Cn2cccn2)nc1`, the GI50 was > 100 µM (inactive) in assay [19]; 29.5 µM (inactive) in assay [3]; 33.4 µM (inactive) in assay [4]; > 100 µM (inactive) in assay [15]; 67.6 µM (inactive) in assay [5]; 47.9 µM (inactive) in assay [6]. The GI50 in [7] is 76.6 µM (inactive); in assay [16], > 100 µM (inactive); in assay [9], 22.9 µM (inactive); in [10], 43.9 µM (inactive); in assay [11], > 100 µM (inactive); in [14], 29.2 µM (inactive).
`COc1cccc([C@@H]2C/C(=N\NC(=O)C(=O)N[C@@H](C)c3ccccc3)c3cc4c(cc3N2)OCO4)c1`: the GI50 in assay [1] was 2.28 µM (inactive); in [18], 19.7 µM (inactive); in assay [2] it was > 100 µM (inactive); in assay [3], 28.1 µM (inactive); in assay [15], 85.9 µM (inactive); in assay [5], 80 µM (inactive). The GI50 in assay [6] was 42 µM (inactive); in assay [7] it was 29.9 µM (inactive); in [16] it was 35 µM (inactive); in assay [10], 3.06 µM (inactive); in [11], 69.5 µM (inactive); in assay [12] it was > 100 µM (inactive). The GI50 is 7.19 µM (inactive) in assay [13] and 21 µM (inactive) in [14].
Turning to `COC(=O)C1c2cc3c(c(O)c2CCC1(C)O)C(=O)c1c(O)cc2c(c1C3=O)OC1OC2(C)C(O)C(N(C)C)C1O` (stereo unspecified), the GI50 was 1.01 µM (active) in assay [1]; 0.338 µM (active) in assay [18]; 0.274 µM (active) in assay [2]; 1.1 µM (active) in [19]; < 0.01 µM (active) in assay [4]; 4.76 µM (inactive) in assay [15]. In addition, the GI50 in [5] was 0.226 µM (active); in assay [6] it was 0.543 µM (active); in [7], 0.906 µM (active); in assay [16] it was 0.221 µM (active); in assay [8], 0.205 µM (active); in assay [9], 1.36 µM (inactive). The GI50 was 0.385 µM (active) in assay [10], 0.254 µM (active) in assay [11], 0.139 µM (active) in [12] and 0.121 µM (active) in [14].
Turning to `COc1ccccc1N1CCN(Cn2c(=O)oc3cccnc32)CC1`, the GI50 in assay [1] was > 100 µM (inactive); in [18], > 100 µM (inactive); in assay [2], > 100 µM (inactive); in assay [19], > 100 µM (inactive); in assay [3] it was 66.7 µM (inactive); in [4], 40.3 µM (inactive). Moreover, the GI50 in [15], in assay [5], in assay [7], in assay [16], in assay [8] and in assay [9] was > 100 µM (inactive) throughout. Also, the GI50 in [10], in assay [11], in assay [12], in assay [13] and in assay [14] was > 100 µM (inactive) in each case.
